Reference: patent publication US5831026A, “Process for purifying factor VIII” (Pharmacia & Upjohn AB, priority 1994, dated 1998)
Like-named read-outs stand apart in the source and are kept apart here.

What was measured:
[1] = system: metal-dependent proteases; assay: Protease assay with resorufin-labeled casein in harvest solution (conditioned medium); assay type: biochemical, Chinese Hamster; details: for Mean absorbance: 37° C., 2 h preincubation + 17 h, pH 7.5; for Mean absorbance corrected: blank subtracted
Experimental: The method chosen was a protease assay with casein which was resorufin-labeled. By treatment with proteases, resorufin-labeled peptides are released from the casein. The concentration of these resorufin-labeled peptides in the supernatant is a measure of the proteolytic activity present. The test sample was incubated at 37° C. for a period of time which was dependent upon the sample at issue. The absorption wave-length chosen was 574 run throughout the tests. […]
Preincubation of the conditioned medium with or without EDTA was conducted at 37° C. for 2 h. After the addition of substrate, further incubation was carried out for 17 h. The pH in the incubation mixture was 7.5.
Absorbance corrected, refers to the absorption after subtraction of the blank value.
Conditioned medium (containing human serum albumin) was clarified and imidazole subsequently added in an amount ranging from 3.6 mM up to 360 mM.
Conditioned medium (containing human serum albumin) was clarified and histidine subsequently added in an amount ranging from 0.14 mM to 13.6 mM.

[2] = system: metal-dependent proteases; details: 3 mM EDTA in washing and elution liquid, harvest solution no. 2
Experimental: The method chosen was a protease assay with casein which was resorufin-labeled. By treatment with proteases, resorufin-labeled peptides are released from the casein. The concentration of these resorufin-labeled peptides in the supernatant is a measure of the proteolytic activity present. The test sample was incubated at 37° C. for a period of time which was dependent upon the sample at issue. The absorption wave-length chosen was 574 run throughout the tests.
(§1) Conditioned mediums (containing human serum albumin) from two consecutive harvests, were clarified and buffered with NH4 Ac. Each resulting solution, with a pH of 6.8, was loaded onto a column containing SP SEPHAROSE® FF sold by Pharmacia AB of Uppsala, Sweden. This cation-exchange chromatography step was performed at about 8° C. After washing, factor VIII was eluted with a salt buffer containing 0.8M NaCl and 0.1M NH4 Ac. The washing liquid as well as the elution liquid contained 3 mM EDTA in the tests with harvest solution no. 2. Tests without EDTA present was carried out for comparison (harvest solution no. 1). […] The concentration of unbound Ca^2+ -ions was determined by an ion-selective electrode.

[3] = 3 mM EDTA in washing and elution liquid; harvest solution no. 2
Experimental: as §1

factor VIII = assay: Activity of factor VIII after addition of complexing agent to eluted solution from SP Sepharose FF, COATEST chromogenic assay; assay type: biochemical; details: for Factor VIII activity (IU/ml) / Factor VIII activity (%): Example 8; for Factor VIII activity (%): 0 h without additive = 100
Experimental: Tests without EDTA present were carried out for comparison.
A conditioned medium (containing human serum albumin) from a different harvest than the previous Examples, was clarified and buffered with NH4 Ac. […] After elution, various amounts of EDTA were added to the resulting solution. Tests without EDTA present were carried out for comparison. The procoagulant activity of factor VIII was determined after storage at ambient temperature for up to 246 hours, in accordance to the procedure described in Example 5.
A conditioned medium (containing human serum albumin) from a different harvest than the previous Examples, was clarified and buffered with NH4 Ac. […] After elution, various amounts of EDTA were added to the resulting solution. Tests without EDTA present were carried out for comparison. The procoagulant activity of factor VIII was determined after storage at ambient temperature for up to 28 hours, in accordance to the procedure described in Example 5.
A conditioned medium (containing human serum albumin) from a different harvest than the previous Examples, was clarified and buffered with NH4 Ac. The resulting solution was loaded onto a column containing SP SEPHAROSE® FF. This cation-exchange chromatography step was performed at 10° C. […] After elution, EDTA or 1,10-Phenanthroline were added to the resulting solution.

[4] = 3 mM EDTA, incubation 4.5 h ambient
[5] = 3 mM EDTA, incubation 7.5 h ambient
[6] = 3 mM EDTA, incubation 24 h ambient

O=C(O)CN(CCN(CC(=O)O)CC(=O)O)CC(=O)O [EDTA, ethylenediamine tetraacetic acid]
Protease activity (%) ([1]; 0.23 mM EDTA): 43%
Mean absorbance ([1]; 0.23 mM EDTA): 1835
Mean absorbance corrected ([1]; 0.23 mM EDTA): 865
Protease activity (%) ([1]; 1.2 mM EDTA): 8%
Mean absorbance ([1]; 1.2 mM EDTA): 1141
Mean absorbance corrected ([1]; 1.2 mM EDTA): 171
Protease activity (%) ([1]; 2.3 mM EDTA): 5%
Mean absorbance ([1]; 2.3 mM EDTA): 1069
Mean absorbance corrected ([1]; 2.3 mM EDTA): 99
Protease activity (%) ([1]; 11.5 mM EDTA): 1%
Mean absorbance ([1]; 11.5 mM EDTA): 994
Mean absorbance corrected ([1]; 11.5 mM EDTA): 24
Protease activity (%) ([1]; 23 mM EDTA): -2%
Mean absorbance ([1]; 23 mM EDTA): 933
Mean absorbance corrected ([1]; 23 mM EDTA): -37
Mean absorbance corrected ([2]; blank subtracted): 0.023
Protease activity (%) ([2]; harvest no. 1 without EDTA = 100): 8%
Mean absorbance ([2]; incubation 2 h): 0.064
Unbound Ca^2+ ions [3]: 25 mM
Activity of factor VIII in % of the initial value (factor VIII; Example 6 (0.4M NaCl eluate), 0.01 mM EDTA, storage 0 h ambient): 100%
Activity of factor VIII in % of the initial value (factor VIII; Example 6 (0.4M NaCl eluate), 0.01 mM EDTA, storage 2.5 h ambient): 77%
Activity of factor VIII in % of the initial value (factor VIII; Example 6 (0.4M NaCl eluate), 0.01 mM EDTA, storage 5 h ambient): 59%
Activity of factor VIII in % of the initial value (factor VIII; Example 6 (0.4M NaCl eluate), 0.01 mM EDTA, storage 10 h ambient): 32%
Activity of factor VIII in % of the initial value (factor VIII; Example 6 (0.4M NaCl eluate), 0.01 mM EDTA, storage 24 h ambient): 1.9%
Activity of factor VIII in % of the initial value (factor VIII; Example 6 (0.4M NaCl eluate), 0.03 mM EDTA, storage 0 h ambient): 100%
Activity of factor VIII in % of the initial value (factor VIII; Example 6 (0.4M NaCl eluate), 0.03 mM EDTA, storage 2.5 h ambient): 76%
Activity of factor VIII in % of the initial value (factor VIII; Example 6 (0.4M NaCl eluate), 0.03 mM EDTA, storage 5 h ambient): 59%
Activity of factor VIII in % of the initial value (factor VIII; Example 6 (0.4M NaCl eluate), 0.03 mM EDTA, storage 10 h ambient): 33%
Activity of factor VIII in % of the initial value (factor VIII; Example 6 (0.4M NaCl eluate), 0.03 mM EDTA, storage 24 h ambient): 2.1%
Activity of factor VIII in % of the initial value (factor VIII; Example 6 (0.4M NaCl eluate), 0.1 mM EDTA, storage 0 h ambient): 100%
Activity of factor VIII in % of the initial value (factor VIII; Example 6 (0.4M NaCl eluate), 0.1 mM EDTA, storage 2.5 h ambient): 82%
Activity of factor VIII in % of the initial value (factor VIII; Example 6 (0.4M NaCl eluate), 0.1 mM EDTA, storage 5 h ambient): 65%
Activity of factor VIII in % of the initial value (factor VIII; Example 6 (0.4M NaCl eluate), 0.1 mM EDTA, storage 10 h ambient): 43%
Activity of factor VIII in % of the initial value (factor VIII; Example 6 (0.4M NaCl eluate), 0.1 mM EDTA, storage 24 h ambient): 4.6%
Activity of factor VIII in % of the initial value (factor VIII; Example 6 (0.4M NaCl eluate), 0.3 mM EDTA, storage 0 h ambient): 100%
Activity of factor VIII in % of the initial value (factor VIII; Example 6 (0.4M NaCl eluate), 0.3 mM EDTA, storage 2.5 h ambient): 79%
Activity of factor VIII in % of the initial value (factor VIII; Example 6 (0.4M NaCl eluate), 0.3 mM EDTA, storage 5 h ambient): 71%
Activity of factor VIII in % of the initial value (factor VIII; Example 6 (0.4M NaCl eluate), 0.3 mM EDTA, storage 10 h ambient): 55%
Activity of factor VIII in % of the initial value (factor VIII; Example 6 (0.4M NaCl eluate), 0.3 mM EDTA, storage 24 h ambient): 11%
Activity of factor VIII in % of the initial value (factor VIII; Example 6 (0.4M NaCl eluate), 1.0 mM EDTA, storage 0 h ambient): 100%
Activity of factor VIII in % of the initial value (factor VIII; Example 6 (0.4M NaCl eluate), 1.0 mM EDTA, storage 2.5 h ambient): 90%
Activity of factor VIII in % of the initial value (factor VIII; Example 6 (0.4M NaCl eluate), 1.0 mM EDTA, storage 5 h ambient): 97%
Activity of factor VIII in % of the initial value (factor VIII; Example 6 (0.4M NaCl eluate), 1.0 mM EDTA, storage 10 h ambient): 97%
Activity of factor VIII in % of the initial value (factor VIII; Example 6 (0.4M NaCl eluate), 1.0 mM EDTA, storage 24 h ambient): 75%
Activity of factor VIII in % of the initial value (factor VIII; Example 6 (0.4M NaCl eluate), 1.0 mM EDTA, storage 48 h ambient): 54%
Activity of factor VIII in % of the initial value (factor VIII; Example 6 (0.4M NaCl eluate), 3.0 mM EDTA, storage 0 h ambient): 100%
Activity of factor VIII in % of the initial value (factor VIII; Example 6 (0.4M NaCl eluate), 3.0 mM EDTA, storage 2.5 h ambient): 92%
Activity of factor VIII in % of the initial value (factor VIII; Example 6 (0.4M NaCl eluate), 3.0 mM EDTA, storage 5 h ambient): 102%
Activity of factor VIII in % of the initial value (factor VIII; Example 6 (0.4M NaCl eluate), 3.0 mM EDTA, storage 10 h ambient): 104%
Activity of factor VIII in % of the initial value (factor VIII; Example 6 (0.4M NaCl eluate), 3.0 mM EDTA, storage 24 h ambient): 100%
Activity of factor VIII in % of the initial value (factor VIII; Example 6 (0.4M NaCl eluate), 3.0 mM EDTA, storage 48 h ambient): 96%
Activity of factor VIII in % of the initial value (factor VIII; Example 6 (0.4M NaCl eluate), 3.0 mM EDTA, storage 72 h ambient): 80%
Activity of factor VIII in % of the initial value (factor VIII; Example 6 (0.4M NaCl eluate), 3.0 mM EDTA, storage 100 h ambient): 91%
Activity of factor VIII in % of the initial value (factor VIII; Example 6 (0.4M NaCl eluate), 3.0 mM EDTA, storage 246 h ambient): 72%
Activity of factor VIII in % of the initial value (factor VIII; Example 7 (0.8M NaCl eluate), 1 mM EDTA, storage 0 h ambient): 100%
Activity of factor VIII in % of the initial value (factor VIII; Example 7 (0.8M NaCl eluate), 1 mM EDTA, storage 5 h ambient): 119%
Activity of factor VIII in % of the initial value (factor VIII; Example 7 (0.8M NaCl eluate), 1 mM EDTA, storage 28 h ambient): 64%
Activity of factor VIII in % of the initial value (factor VIII; Example 7 (0.8M NaCl eluate), 2 mM EDTA, storage 0 h ambient): 100%
Activity of factor VIII in % of the initial value (factor VIII; Example 7 (0.8M NaCl eluate), 2 mM EDTA, storage 5 h ambient): 120%
Activity of factor VIII in % of the initial value (factor VIII; Example 7 (0.8M NaCl eluate), 2 mM EDTA, storage 28 h ambient): 100%
Activity of factor VIII in % of the initial value (factor VIII; Example 7 (0.8M NaCl eluate), 3 mM EDTA, storage 0 h ambient): 100%
Activity of factor VIII in % of the initial value (factor VIII; Example 7 (0.8M NaCl eluate), 3 mM EDTA, storage 5 h ambient): 120%
Activity of factor VIII in % of the initial value (factor VIII; Example 7 (0.8M NaCl eluate), 3 mM EDTA, storage 28 h ambient): 90%
Activity of factor VIII in % of the initial value (factor VIII; Example 7 (0.8M NaCl eluate), 4 mM EDTA, storage 0 h ambient): 100%
Activity of factor VIII in % of the initial value (factor VIII; Example 7 (0.8M NaCl eluate), 4 mM EDTA, storage 5 h ambient): 109%
Activity of factor VIII in % of the initial value (factor VIII; Example 7 (0.8M NaCl eluate), 4 mM EDTA, storage 28 h ambient): 103%
Activity of factor VIII in % of the initial value (factor VIII; Example 7 (0.8M NaCl eluate), 5 mM EDTA, storage 0 h ambient): 100%
Activity of factor VIII in % of the initial value (factor VIII; Example 7 (0.8M NaCl eluate), 5 mM EDTA, storage 5 h ambient): 116%
Activity of factor VIII in % of the initial value (factor VIII; Example 7 (0.8M NaCl eluate), 5 mM EDTA, storage 28 h ambient): 91%
Factor VIII activity (IU/ml) (factor VIII; [4]): 813 IU/ml
Factor VIII activity (%) (factor VIII; [4]): 92%
Factor VIII activity (IU/ml) (factor VIII; [5]): 862 IU/ml
Factor VIII activity (%) (factor VIII; [5]): 97%
Factor VIII activity (IU/ml) (factor VIII; [6]): 763 IU/ml
Factor VIII activity (%) (factor VIII; [6]): 86%
